Experimental data from US20220168301A1, “METHODS FOR TREATING SYMPTOMATIC ORTHOSTATIC HYPOTENSION” (Cerecor Inc, priority 2019, published 2022).
Where two headings read alike, the source gives them in different places.

How the values were obtained:
healthy subjects [1] = test: 24-hour ambulatory blood pressure monitoring (ABPM), 7-day once-daily dosing study in healthy subjects; type: in vivo, human
Procedure: The effects of CERC-301 were assessed in a randomized, double-blind, placebo-controlled, parallel-group, three-part safety, pharmacokinetic, and pharmacodynamic study in healthy human subjects.
One of the primary objective of the study was to investigative the dose-response relationship between CERC-301 and pharmacodynamic (PD) effects on blood pressure [BP] in healthy subjects. Secondary objectives included the investigation of the safety and tolerability of CERC-301 over 7 days of once-daily administration and the investigation of a single dose and 7-day repeated dose pharmacokinetic (PK) profiles of CERC-301, and to explore sub-group (age or gender) effects on other safety parameters, such as adverse events (AEs).
(§1) The study was a randomized, double-blind, placebo-controlled parallel-group, three-part, repeated dose in-patient study investigating the safety, tolerability, PK, and PD of CERC-301 in healthy subjects.
Part 1: After the screening period, healthy, young male and female subjects were randomly assigned to dose groups as shown in Table 1. Randomized subjects participated in a time-matched baseline BP monitoring day (Day −1), once-daily dosing with study drug during which safety, PK, and PD assessments were performed on Days 1-7, discharge on Day 8, a follow-up period for PK and safety on Days 9-11, and end-of-study visit on Day 16. Each parallel dose group was balanced for gender (approximately equal number of males and females in each group).
Part 2: After the screening period, healthy, young and intermediate age male and female subjects were randomly assigned to dose groups as shown in Table 2. Randomized subjects participated in a time-matched baseline BP monitoring day (Day −1), once-daily dosing with study drug during which safety, PK, and PD assessments were performed on Days 1-7, discharge on Day 8, a follow-up period for PK and safety on Days 9-11, and end-of-study visit on Day 16. Each parallel dose group was balanced for gender (approximately equal number of males and females in each group).
Part 3: After the screening period, healthy, young and elderly male and female subjects were randomly assigned to dose groups as shown in Table 3.
Randomized subjects participated in a time-matched baseline BP monitoring day (Day −1), once-daily dosing with study drug during which safety, PK, and PD assessments were performed on Days 1-7, discharge on Day 8, a follow-up period for PK and safety on Days 9-11, and end-of-study visit on Day 16. Each parallel dose group was balanced for gender (approximately equal number of males and females in each group).
(§2) Subjects received 8, 12, 16 or 20 mg CERC-301 or matching placebo once-daily for 7 days.
PD endpoints included the following […]: • 24-hour Ambulatory Blood Pressure Monitoring (ABPM) • Observed values and time matched change from baseline (pre-dose) of 24-hour ABPM • Mean 24 hours, Sleep and Awake systolic and diastolic BPs. • Mean Arterial Pressure (MAP), pulse pressure, and heart rate. • Observed values and change from baseline of sub-scale scores and Total Mood Disturbance (TMD) scores from Profiles of Mood States (POMS)

healthy subjects [2] = test: Safety and tolerability over 7 days of once-daily administration in healthy subjects; type: in vivo, human
Procedure: as §1, §2
The safety variables evaluated included treatment-emergent adverse events (TEAE), vital signs, clinical safety laboratories (chemistry, hematology, urinalysis), electrocardiograms (ECGs), physical examinations, Clinician Administered Dissociated States Scale (CADSS) and Columbia-Suicide Severity Rating Scale (C-SSRS).

[3] = Plasma pharmacokinetics of single escalating doses in patients with symptomatic nOH associated with Parkinson's disease; type: in vivo, human; settings: for Cmax / AUC: human, plasma, oral; for AUC: 6-hour PK collection period, read-out: Area Under the Curve (AUC)
Procedure: Subjects were dosed on five separate occasions, approximately 7-10 days apart, with one of four single escalating doses of CERC-301 or placebo and underwent an orthostatic challenge test to assess the safety, tolerability, effect on blood pressure, and PK. Subjects also completed a symptomatic assessment following the orthostatic challenge. Subjects were enrolled and randomized based on the dosing schedule in Table 4:
Investigational product was administered as CERC-301 4 mg tablets and matching placebo. Study drug was administered orally (P.O) with water approximately 1.5 hours after the patient consumed breakfast.
PK samples were drawn pre-dose and at 0.5, 1, 2, 4 and 6 hours post-dose. All blood draws were done after blood pressure measures are taken.
Blood samples for plasma concentration analysis of CERC-301 were collected at pre-dose and 0.5, 1, 2, 4 and 6 hours post-dose at all visits.
Blood sampling, processing, storage, and shipping instructions were provided in the Laboratory Manual. The plasma samples were analyzed via liquid chromatography tandem mass spectrometry (LC-MS/MS) following a validated method.
PK parameter estimates for CERC 301 were calculated using standard non-compartmental methods of analysis.

[4] = rats, cited from earlier work
[5] = monkeys, cited from earlier work
[6] = 20 mg, 24 hours postdose, after 7 days of dosing

## Cc1ccc(COC(=O)N2CC[C@H](CNc3ncccn3)[C@H](F)C2)cc1 [CERC-301]
Healthy subjects [1]; 16 mg, Day 7
  Average nighttime SBP increase: 2 mm Hg
Healthy subjects [1]; [6]
  Mean hourly average DBP change from baseline: approximately 10 mm Hg
  Mean hourly average SBP change from baseline: approximately 14 mm Hg
Healthy subjects [1]; 20 mg, Day 1
  Maximum average hourly daytime ambulatory DBP: approximately 15 mm Hg
  Maximum average hourly daytime ambulatory SBP: approximately 16 mm Hg
Healthy subjects [1]; 20 mg, Day 4
  Maximum average hourly daytime ambulatory DBP: approximately 15 mm Hg
  Maximum average hourly daytime ambulatory SBP: ~21 mm Hg
Healthy subjects [1]; 20 mg, Day 7
  Maximum average hourly daytime ambulatory DBP: ~19 mm Hg
  Maximum average hourly daytime ambulatory SBP: ~24 mm Hg
Healthy subjects [2]; 8 to 20 mg for 7 days
  Changes in vital signs, ECGs or physical examination attributable to CERC-301: no clinically significant adverse changes
  Dose-related or age-related differences in TEAEs or related AEs: no clear-cut dose-related or age-related differences
  Most common related AEs (each in at least two subjects receiving CERC-301): feeling abnormal, headache, feeling of relaxation, elevated mood, dizziness, logorrhea, sedation, visual impairment, energy increased, palpitations, disturbance in attention, hypervigilance, confusional state, oral paresthesia, anxiety, chest pain, depressed mood, diarrhea, and balance disorder
Healthy subjects [2]; except ALT/AST increases in one elderly and elevated prolactin in one young, both 12 mg
  Laboratory abnormalities attributable to CERC-301: no clinically significant laboratory abnormalities
Healthy subjects [2]; repeated daily doses of 8, 12, 16 and 20 mg for 7 days
  Tolerability: generally well tolerated
[3]; 8 to 20 mg single doses (FIG. 2)
  Cmax dose proportionality: generally dose proportional
[3]; all dosing groups (8, 12, 16, 20 mg single dose P.O.)
  Tmax: approximately 2 hours post dose
[3]; 8 mg single dose
  Cmax: 108 ng/mL
  AUC: 473 ng·h/mL
[3]; 12 mg single dose
  Cmax: 161 ng/mL
  AUC: 795 ng·h/mL
[3]; 16 mg single dose
  Cmax: 187 ng/mL
  AUC: 954 ng·h/mL
[3]; 20 mg single dose
  Cmax: 266 ng/mL
  AUC: 1240 ng·h/mL
[4]
  Excretion: excreted exclusively as metabolites via both the biliary and renal routes
  Metabolism: highly metabolized via multiple cytochrome P450 (CYP450) enzymes
[4]; oral administration
  Absorption: rapidly absorbed after oral administration
[5]
  Excretion: excreted exclusively as metabolites via both the biliary and renal routes
  Metabolism: highly metabolized via multiple cytochrome P450 (CYP450) enzymes
[5]; oral administration
  Absorption: rapidly absorbed after oral administration
